The values below come from a melting point compilation (Tetko et al.; mined from patent text by program, amines drawn as free bases though some values may be those of a salt).

Molecules are shown by their SMILES.

What is called melting point is the temperature, or range, at which the solid turns liquid. As to `CCCNC(=S)NC1=Nc2ccccc2CS1`, the melting point lay within 180 to 184 °C. `CC1C(c2ccccc2)NC(=S)N1O` (configuration not stated) yielded a melting point of 202 °C.

Turning to `COC(CNC1=Nc2ccccc2Nc2ccccc21)OC`, the melting point was in the range of 181 to 182 °C.

The molecule `CCOC(=Nc1cccc(C(F)(F)F)c1)C(C)C` gave a melting point of 95 to 100 °C. The value for `CC(=O)COc1ccc(Cc2ccccc2)cc1` was 51 to 52 °C; that for `CC(C)(C)OC(=O)N1CCN(C(=O)CCl)CC1` was 68 to 70 °C; that for `CCOC(=O)c1cccn2cc(C(C)(C)C)nc12` was 72 to 74 °C.

For `CN(C)C1(Cc2ccccc2)CCC(O)(c2cc3ccccc3n2C)CC1` (configuration not stated), the melting point was 105 to 107 °C.

In turn, `COc1ccc2c(c1)C(=O)c1ccc(OC)cc1C2(Cc1ccnc(F)c1)Cc1ccnc(F)c1` showed a melting point of 151 to 152 °C. As for `CCCN1C(=O)C2(CC)CC(c3ccc(N)cc3)(C2)C1=O`, the melting point was 124 to 125 °C. For `CCOC(=O)c1cnoc1-c1ccc(C(F)(F)F)cc1`, the melting point is 42 to 44 °C. `N#CC1(CCCCCCCCCCCCC2(C(=O)O)CC2)CC1` returned a melting point of 44.4 to 46.9 °C.

`Cc1ccc(Nc2c(C)cc(Cl)cc2Cl)c(CC(=O)O)c1` registered a melting point of 137 to 141 °C.

On to `CCNc1cc(NS(=O)(=O)c2ccc(N)cc2)nc(NCC)n1`, for which the melting point lay in the range of 245 to 250 °C. Molecule `O=C(O)CCCCC(=O)NCCc1ccccc1` displayed a melting point of 110 to 111 °C. For `O=C1c2c(O)ccc(O)c2C(=O)c2c(NCCNCCO)ccc(O)c21`, the melting point was in the range of 196 to 198 °C. The value for `Cc1cnc(CNC(=O)c2sc(N3CCN(CC4CC4)C3=O)nc2C)cn1` was 161 to 163 °C.

Molecule `COC(=O)c1ccc2scc(-c3ccc(SC)cc3)c2c1` came in with a melting point of 135 to 136 °C.

Take `O=C(NCC12CC3CC(CC(C3)C1)C2)c1cc(-c2ccccc2C(=O)O)ccc1Cl`: the melting point lay within 228 to 230 °C. With `CCOC(=O)c1c(C)cc2cnc(-c3ccccc3C(F)(F)F)nc2c1C`, the melting point was 68 to 69 °C. For the molecule `CCCc1nc(-c2cccnc2)cnc1NN`, the melting point lay within 162 to 163 °C. Consider `CCC(CC)Nc1c([N+](=O)[O-])cc(C(C)C)c(C=CN(C)C)c1[N+](=O)[O-]`, for which the melting point lay in the range of 88 to 89.5 °C. The figure for `O=C1NC(=O)C(Cc2ccc(OCCON=Cc3ccccc3)cc2)S1` (configuration not stated) is 126 to 129 °C; for `Cc1nccc(NC(=O)C(CC2CCCC2)c2ccc(S(C)(=O)=O)c(C#N)c2)n1` (configuration not stated) it is 89 to 94 °C.

`NC(=O)Cc1cnc(Nc2n[nH]c3ccc(-c4ncccc4Cl)cc23)s1` displayed a melting point greater than 230 °C. The figure for `COc1ccc(S(=O)(=O)N2CCc3cccc(-c4ccc(C=CC(=O)NO)cc4)c32)cc1` is 200 to 201 °C; for `CC(C)(C)c1cc(Nc2cccc(Cl)c2)cc(C(C)(C)C)c1O` it is 110 to 111 °C.

Molecule `Cc1ccc(-c2cnn(C)c2)cc1` had a melting point of 107 to 108 °C. Turning to `CCCCNC(=S)N1CCc2[nH]cnc2C1CC` (configuration not stated), the melting point is 180 °C. In turn, `CNC(=O)c1cc2c(nc(C)n2C)c(O)c1CC[C@@H](O)c1ccccc1` registered a melting point of 247 to 249 °C. The value for `CC(C)c1cc(C(=O)Nc2ccc(C(=O)O)cc2)[nH]c1C(C)C` was 230 °C; that for `C=CCc1cc2c(c(CC=C)c1O)OCC(=O)N2CC=C` was 91 to 92 °C; that for `CCS(=O)(=O)c1ccc2c(c1)nc(CC(C)(C)C)n2CC1(O)CCCC1` was 172 °C. As for `Cc1cc(-c2ccccc2)n2nc(SC(F)(F)F)nc2n1`, the melting point fell in the range of 91 to 93 °C. The figure for `COc1ccc2c(c1)-c1ccccc1C=CC(O)=C2` is 97 to 99 °C; for `CC(C)OCCCNc1c([N+](=O)[O-])cnc2cccnc12` it is 62.5 to 63.5 °C; for `CN(O)C(=O)Nc1cccc(NC(=O)N(C)O)c1` it is 146 to 147 °C.

As for `CNC(=O)Oc1c(C)cc(C)c2c1CC(C)C2(C)C` (configuration not stated), the melting point lay in the range of 130 to 131 °C. The molecule `COc1ccc(CN2CCN(CCCN3CCN(Cc4ccc(OC)cc4)CC3)CC2)cc1` registered a melting point of 86 to 87 °C.

Turning to `O=C1CCCC2=C1C(c1cccc(F)c1)C1=C(CCCC1)N2` (configuration not stated), the melting point was in the range of 249 to 251 °C. Turning to `Clc1ccc(-c2cc(C3CCN(CC4CCCCC4)CC3)n[nH]2)cc1`, the melting point was 186 to 187 °C. In turn, `Cc1ccc(C#N)c(Sc2ccc(F)cc2)c1` came in with a melting point of 93 to 96 °C.

As for `O=C(c1ccc(F)cc1)c1ccc2n1CCC2C(=O)O` (configuration not stated), the melting point came out at 165 °C. Molecule `CC(=O)C(=NNc1ccc(OC(C)(C)C)cc1)Sc1ccc(Cl)cc1` yielded a melting point of 107 to 108 °C. `COc1cc2c(cc1Nc1ncc(Cl)c(Nc3ccccc3OC)n1)CCOC(=O)N2C` returned a melting point of 192 to 194 °C. The figure for `COc1ccc(-c2ccc(CC3CC=CC3)cc2)cc1` is 75 to 77 °C. The molecule `Cc1cc(C)n2nc(S(=O)(=O)Nc3c(F)cccc3F)c(Cl)c2n1` displayed a melting point of 194 to 196 °C. In turn, `CSCC(=O)C(Cc1ccc2ccccc2c1)NC(=O)C(CC(C)C)NC(=O)OCc1ccccc1` (configuration not stated) showed a melting point of 101 to 103 °C. The molecule `COCCCCNC(=O)C(c1ccccc1)c1ccccc1` returned a melting point of 75.5 to 76.8 °C.

`C=C(C)C(=O)OCCCCCCOc1ccc(/C=C/C(=O)OC)cc1` came in with a melting point of 45 to 50 °C. In the case of `CNc1ncccc1C(=O)Nc1ccc2c(c1)-c1c(c(C(N)=O)nn1-c1ccc3c(c1)OCO3)CC2`, the melting point fell in the range of 273 to 275 °C. Regarding `COC(=O)c1ccc(CC(C)NCC(O)c2cccc(C(F)(F)F)c2)cc1` (configuration not stated), the melting point lay within 73 to 88 °C.

`CS(=O)(=O)c1ccc(-c2cc(C(F)F)nn2C2CCCCC2)cc1F` registered a melting point of 138 to 139 °C.

The molecule `CN1CCC(c2c[nH]c3ccc(O)cc23)CC1` registered a melting point of 234 to 237 °C. `CNC(=O)NS(=O)(=O)c1ccccc1CCC(F)(F)F` displayed a melting point of 176 to 177 °C. For the molecule `O=C1Nc2ccc(Cl)nc2Oc2ccccc21`, the melting point lay within 311 to 313 °C. Consider `CC(=O)OC1CCC2(C)C(=CCC3C4CCC(=O)C4(C)CC(OC(C)=O)C32)C1` (configuration not stated), for which the melting point lay in the range of 177 to 179 °C. The value for `Cc1[nH]c(=O)c2c(ccc3nc(Nc4c(Cl)cccc4Cl)n(C)c32)c1CCN1CCOCC1` was 285 to 290 °C; that for `Cc1ccc(-c2nc3sc4ccccc4n3c2CC(N)=O)s1` was 243 to 245 °C. The figure for `O=C(O)CCCCCOc1ccccc1OCc1ccccc1` is 77 to 78 °C; for `CCCN1CCC(c2n[nH]c3cc(F)ccc23)CC1` it is 175 to 177 °C; for `CC12CCC(O)CC1CCC1C2CCC2(C)C(C(O)CO)CCC12` (configuration not stated) it is 210 to 212 °C. `CC(C)C[C@H](NC(=O)CCCc1ccccc1)C(=O)N[C@@H](C(C)C)[C@@H](O)c1c(-c2ccccc2)c1=O` showed a melting point of 91 to 96 °C. As for `O=c1cc(S)oc2ccccc12`, the melting point was in the range of 207 to 208 °C. For `CCC(CC)OCc1c(-c2ccc(OC(F)F)c(OC3CC3)c2)[nH]c2cn[nH]c(=O)c12`, the melting point was 133 to 162 °C.

The molecule `O=C(O)c1cc(=O)c2c(OCC(O)COc3ccc(Cl)cc3)cccc2o1` (configuration not stated) had a melting point of 191 to 193 °C. In turn, `Cc1cc(Cl)nc(N(C(N)=O)c2ccccc2[N+](=O)[O-])n1` yielded a melting point of 155 °C. The value for `Cc1nc2c(c3c1[nH]c1ccccc13)C(=O)CC(c1ccccc1)C2` (configuration not stated) was 246 to 248 °C; that for `CCCCCCCc1cnc(N)s1` was 75 to 76 °C. The molecule `CCN(CC)c1nn2ccccc2c1C(C)=O` registered a melting point of 59.5 to 60 °C. The value for `CN(C)c1nc(Cl)nc(NCC(F)(F)F)n1` was 181 to 184 °C. The value for `CC(C(=O)O)c1ccc2c(c1)Sc1ncccc1CC2` (configuration not stated) was 161 to 162 °C. The figure for `COc1ccc(CCN2CCC(Nc3nc4cncnc4n3Cc3ccccn3)CC2)cc1` is 144 °C; for `CCn1cc(O)c(=O)c2ccccc21` it is 180 to 182 °C. The molecule `COCC(=S)Nc1c(Cl)c(Cl)cc2nc(OC)c(OC)nc12` gave a melting point of 198 to 200 °C. In turn, `O=C(CCCc1ccccc1)NCC(=O)N1c2ccccc2N(Cc2ccccc2)C(=O)[C@H]2CCC[C@H]21` (relative stereo) had a melting point of 219 to 221 °C. `CNCCOc1ccc(C2=C(c3ccccc3)CCCc3cc(O)ccc32)cc1` had a melting point of 184 to 187 °C. The molecule `COC(=O)C1CC(C#N)(c2cccc3ccccc23)CCC1=O` (configuration not stated) displayed a melting point of 166 to 168 °C. The value for `CC(C)(C)C(=O)Oc1ccc(CCNC(=O)c2cccnc2)cc1` was 80 to 82 °C; that for `COC(=O)c1cc(CCCc2cc3c(=O)[nH]c(N)nc3[nH]2)cs1` was 182 to 183 °C; that for `CCN(C(=O)C(C)CSC)c1sc(-c2cccnc2)nc1Cl` (configuration not stated) was 79 to 81 °C. The value for `Nc1ccccc1NC(=O)c1ccc(CCC(=O)NCc2cccnc2)cc1` was 168 to 170 °C; that for `Cc1nc2c(N)nc3cccnc3c2n1CC1(O)CCN(C(=O)N2CCOCC2)CC1` was 245 to 248 °C.

Turning to `CCCCCCCCCCCCC(C)(C)NC(=O)Nc1ccccc1C(=O)NC1CCN(C(c2ccccc2)c2ccccc2)CC1`, the melting point was in the range of 146 to 148 °C. The figure for `CC(=O)Oc1ccc2c(c1)C(=O)CC1C2CCC2(C)C(OC(C)=O)CCC12` (configuration not stated) is 171 to 175 °C; for `ON=C1Cc2ccccc2C(=NO)c2ccccc21` it is 220 to 221 °C. As for `N#Cc1nn(-c2c(Cl)cc(C(F)(F)F)cc2Cl)cc1C=O`, the melting point came out at 168 °C. The molecule `O=C1Nc2ccccc2C(c2ccccc2)N1CC1CCN(Cc2ccccc2)CC1` (configuration not stated) yielded a melting point of 163 to 165 °C. The figure for `Cc1c(NCc2ccccc2)c2c(c3c1C(c1ccc(C(C)C)cc1)CO3)CCC2` (configuration not stated) is 95 to 96 °C; for `Cc1c(-c2cccs2)nn2cc[nH]c12` it is 205 to 208 °C.

`O=C(c1ccccc1C(c1ccc(O)cc1)c1ccc(O)cc1)N(C1CCCCC1)C1CCCCC1`: the melting point is greater than 300 °C. In turn, `Oc1ccc([C@@H]2CCc3cc(O)ccc3[C@@H]2Cn2ccnc2)cc1` (relative stereo) gave a melting point of 238 °C.
